According to patent US7034040B2, “Fluorinated heterocyclic compounds and methods of synthesis” (R.T. Alamo Ventures I, priority 2002, dated 2006):
Blank lines part the entries; values can stand above or below the compound they belong to.

Legend:
[1] = system: PDE4; assay: PDE4 enzyme inhibition assay; assay type: biochemical; settings: 1000 μM compound, 1% DMSO vehicle, human U-937 cell enzyme
Source text: (§1) In this example, monofluoroflosequinan was subjected to biochemical enzyme assays and radioligand binding assays to determine its percent inhibition of a variety of enzyme activities and its percent inhibition of specific binding. The methods used have been adapted from those described in the scientific literature, see Hidaka and Asano “Human blood platelet 3′:5′ cyclic nucleotide phosphodiesterase. Isolation of low-Km and high Km phosphodiesterase.” Biochem. Biophys. Acta 429:485 (1976); Nicholoson et al. “Differential modulation of tissue function and therapeutic potential of selective inhibitors of cyclic nucleotide phosphodiesterase isoenzymes” Trends Pharmacol. Sci. 12:19 (1991); Cortijo et al. “Investigation into the role of phosphodiesterase IV in bronchorelaxation, including studies with hyman bronchus.” Br. J Pharmacol. 108:562 (1993); Baehr et al. “Isolation and characterization of cGMP phosphodiesterase from bovine rod outer segments.” J. Biol. Chem. 254:11669 (1979), Gillespie and Beavo “Inhibition and stimulation of photoreceptor phosphodiesterase by dipyridamole and M&B 22,948” Molecular Pharm. […]
PDE4: PDE4 partially purified from human U-937 pronocytic cells was used. […] Unhydrolyzed cAMP was bound to AGI-X2 resin, and the remaining [^3H]adenosine in the aqueous phase was quantitated by scintillation counting.

[2] = target: T1, PDE3 (Homo sapiens, UniProt Q14432); assay: PDE3 enzyme inhibition assay; assay type: biochemical; settings: 1000 μM compound, 1% DMSO vehicle, human platelet enzyme
T1 construct: PDE3 partially purified from human platelets was used; from tissue; host or cells: human platelets
T1 sequence (Q14432 whole entry): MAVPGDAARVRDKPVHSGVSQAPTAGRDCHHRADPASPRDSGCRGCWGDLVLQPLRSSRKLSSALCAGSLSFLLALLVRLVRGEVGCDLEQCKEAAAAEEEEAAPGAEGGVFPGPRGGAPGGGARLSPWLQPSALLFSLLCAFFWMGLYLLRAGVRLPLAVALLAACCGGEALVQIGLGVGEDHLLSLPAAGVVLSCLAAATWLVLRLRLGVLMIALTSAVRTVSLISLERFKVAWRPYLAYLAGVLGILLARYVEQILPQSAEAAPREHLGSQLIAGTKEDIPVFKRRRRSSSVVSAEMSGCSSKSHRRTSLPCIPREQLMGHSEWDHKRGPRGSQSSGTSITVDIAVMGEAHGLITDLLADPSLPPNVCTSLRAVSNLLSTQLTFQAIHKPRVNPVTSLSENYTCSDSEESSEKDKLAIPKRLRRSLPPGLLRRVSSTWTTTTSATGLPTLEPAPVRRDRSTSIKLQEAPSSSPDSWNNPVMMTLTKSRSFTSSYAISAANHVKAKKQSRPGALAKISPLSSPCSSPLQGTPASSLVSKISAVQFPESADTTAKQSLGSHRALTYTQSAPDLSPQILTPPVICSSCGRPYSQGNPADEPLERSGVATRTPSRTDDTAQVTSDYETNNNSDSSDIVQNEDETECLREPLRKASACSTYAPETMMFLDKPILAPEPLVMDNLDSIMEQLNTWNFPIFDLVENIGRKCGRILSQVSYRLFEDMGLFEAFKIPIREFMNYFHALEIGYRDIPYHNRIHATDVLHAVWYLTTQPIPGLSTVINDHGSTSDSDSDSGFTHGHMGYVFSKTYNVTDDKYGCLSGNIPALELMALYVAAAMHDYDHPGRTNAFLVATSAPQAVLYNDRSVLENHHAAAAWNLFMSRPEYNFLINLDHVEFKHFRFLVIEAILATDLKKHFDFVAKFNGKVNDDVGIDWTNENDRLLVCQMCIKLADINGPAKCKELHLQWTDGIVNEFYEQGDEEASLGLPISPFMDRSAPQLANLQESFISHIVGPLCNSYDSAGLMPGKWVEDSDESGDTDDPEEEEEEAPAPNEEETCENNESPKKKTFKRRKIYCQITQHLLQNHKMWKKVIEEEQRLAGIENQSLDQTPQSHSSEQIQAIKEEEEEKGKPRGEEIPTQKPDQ
Source text: as §1
PDE3: PDE3 partially purified from human platelets was used. […] Unhydrolyzed cAMP was bound to AGI-X2 resin, and the remaining [^3H]adenosine in the aqueous phase was quantitated by scintillation counting.

[3] = system: PDE1; assay: PDE1 enzyme inhibition assay; assay type: biochemical; settings: 1000 μM compound, 1% DMSO vehicle, bovine heart enzyme
Source text: as §1
PDE1: PDE1 partially purified from bovine heart was used. […] Unhydrolyzed cAMP was bound to AGI-X2 resin, and the remaining [^3H]adenosine in the aqueous phase was quantitated by scintillation counting.

[4] = system: Protein Serine/Threonine Kinase PKC, Non-Selective; assay: Protein serine/threonine kinase PKC, non-selective, enzyme assay; assay type: biochemical; settings: rat brain enzyme
Source text: In this example, monofluoroflosequinan was subjected to biochemical enzyme assays and radioligand binding assays to determine its percent inhibition of a variety of enzyme activities and its percent inhibition of specific binding. The methods used have been adapted from those described in the scientific literature, see Hidaka and Asano “Human blood platelet 3′:5′ cyclic nucleotide phosphodiesterase. Isolation of low-Km and high Km phosphodiesterase.” Biochem. Biophys. Acta 429:485 (1976); Nicholoson et al. “Differential modulation of tissue function and therapeutic potential of selective inhibitors of cyclic nucleotide phosphodiesterase isoenzymes” Trends Pharmacol. Sci. 12:19 (1991); Cortijo et al. “Investigation into the role of phosphodiesterase IV in bronchorelaxation, including studies with hyman bronchus.” Br. J Pharmacol. 108:562 (1993); Baehr et al. “Isolation and characterization of cGMP phosphodiesterase from bovine rod outer segments.” J. Biol. Chem. 254:11669 (1979), Gillespie and Beavo “Inhibition and stimulation of photoreceptor phosphodiesterase by dipyridamole and M&B 22,948” Molecular Pharm. 36:773 (1989); Tamaoki and Nakano “Potent and specific inhibitors of protein kinase C of microbial origin” Biotechnology 8:732 (1990); Wilkinson et al. “Isoenzyme specificity of bisindolymaleimides, selective inhibitors of protein kinase C” Biochem. J 294:335 (1993); Tamaki et al. “Staurosporine, a potent inhibitor of phospholipid/Ca++dependent protein kinase” Biochem. Biophys. Res. Comm, 135:397 (1986); Schoemaker and Langer “[3H]Diltiazem binding to calcium channel antagonist recognition sites in rate cerebral cortex” Eur. J Pharmacol. 111:273 (1985); Ehlert et al. “The binding of [3H]nitrendipine to receptors for calcium channel antagonists in the heart, cerebral cortex and ileum of rats.” Life Sci. 30:2191 (1982); Gould et al. “[3H]nitrendipine-labeled calcium channels discriminate inorganic calcium agonists and antagonists” Proc. Natl. Acad. Sci. USA 79:3656 (1982); Reynolds et al. “(−)−[3H]Desmethoxyverapamil labels multiple calcium channel modulator receptors in brain and skeletal muscle membranes: Differentiation by temperature and dihydropyridines” J Pharmacol. Exp. Ther. 237:731 (1986) and Worley et al. “Characterization of inositol triphosphate receptor binding in brain. Regulation by pH and calcium” J Biol. Chem. 262:12132 (1987). A brief summary of the conditions for each assay is provided below:
Protein Serine/Threonine Kinase PKC, Non-Selective: The enzyme was obtained from rat brain and the substrate was 370 μg/ml histone. The reaction was pre-incubated 5 min at 25° C., followed by a 15 min incubation at 25° C. in a buffer of 20 mM Tris-HCl, 10 mM MgCl2.Ho and 0.1 mM CaCl2.2HO, pH 7.4. [^32P]histone was quantitated.

[5] = target: Calcium Channel Type L, Dihydropyridine; settings: Wistar rat cerebral cortex, 90 min at 25° C.; read-out: Kd (historical value of the radioligand); cited from earlier work

- inhibition of PDE4 [1]: greater than 50%
- inhibition at 1000 µM [2]: > 50%
- inhibition of PDE1 [3]: greater than 50%
Compound: Cn1cc(S(=O)(=O)C(F)F)c(=O)c2ccc(F)cc21 [3-difluoromethylsulfonyl-7-fluoro-1-methyl-4-quinolone]

- inhibition of protein serine/threonine kinase, PKC, non-selective ([4]; 100 μM compound): Significant inhibition
- inhibition of protein serine/threonine kinase, PKC, non-selective ([4]; 300 μM compound): Significant inhibition
- inhibition of protein serine/threonine kinase, PKC, non-selective ([4]; 1000 μM compound, 1% DMSO vehicle): Significant inhibition
Compound: Cn1cc([S+]([O-])CF)c(=O)c2ccc(F)cc21 (racemic) [monofluoroflosequinan, 7-fluoro-3-fluoromethylsulfinyl-1-methyl-4-quinolone]

- inhibition at 1000 µM [2]: > 50%
- inhibition of protein serine/threonine kinase, PKC, non-selective ([4]; 1000 μM compound): greater than 50%
- inhibition of PDE1 [3]: greater than 50%
Compound: Cn1cc([S+]([O-])C(F)F)c(=O)c2ccc(F)cc21 (stereo not shown) [difluoroflosequinan, 3-difluoromethylsulfinyl-7-fluoro-1-methyl-4-quinolone]

Compound: CCOC(=O)C1=C(C)NC(C)=C(C(=O)OC)C1c1cccc([N+](=O)[O-])c1 (stereo not shown) [^3H Nitrendipine]
- Kd [5]: 0.18 nM
